Experimental data taken from patent publication US8414879B2, “Superporous hydrogel with cells encapsulated therein and method for producing the same” (The Board of Trustees of the University of Illinois, priority 2008, dated 2013).
Read-outs that look alike come from different tables or passages of the source.

How the values were obtained:
[1] = system: cells; assay: Effect of precursor solution components, LIVE/DEAD cell assay
Method: LIVE/DEAD cell assay was used to visualize live and dead cells (Gaugain, et al. (1978) Biochemistry 17:5071-8; Gaugain, et al. (1978) Biochemistry 17:5078-88). […] To the resuspended cells was added 100 μL of calcein-AM/ethidium homodimer stain (stock solutions of the dyes were prepared as per manufacturer's protocol-Molecular Probes). Cells were incubated for 30 minutes and images were captured of both treatment and control groups using a fluorescence microscope.
(§1) Specifically, cells were treated with 0.05% to 1.5% (w/v) APS at pH 5 for 10 minutes or 0.05% to 1.5% (w/v) APS at pH 8 for 24, 48, or 72 hours and compared to controls in a MTS test and LIVE/DEAD cell assay. Similarly, cells were treated with 0.05% to 0.90% (w/v) TEMED at pH 5 for 10 minutes or 0.05% to 0.90% (w/v) TEMED at pH 8 for 24, 48, or 72 hours and compared to controls in a MTS test and LIVE/DEAD cell assay. Likewise, cells were treated with 0.05% to 1.0% (w/v) F-127 at pH 5 for 10 minutes or 0.05% to 1.0% (w/v) F-127 at pH 8 for 24, 48, or 72 hours and compared to controls in a MTS test and LIVE/DEAD cell assay.
(§2) Treatment groups were compared to untreated controls in both a MTS test and LIVE/DEAD cell assay.
(§3) The suspension in the test tube was allowed to stand for 5 minutes. Cells were treated with the supernatant for 10 minutes or 24, 48, or 72 hours. The saturated solution was aspirated from the wells, cells were washed and analyzed with the MTS test and LIVE/DEAD cell assay.
(§4) The effects of precursor solution constituents on cell viability were analyzed over a 72 hour period. The experiments were designed based on the conditions that the cells would be exposed to during the fabrication of superporous hydrogels; i.e., exposure to each constituent of SPH individually at pH of 5 for 10 minutes and thereafter for 24, 48 and 72 hours at pH of 8. […] 96 AQUEOUS ONE® solution Cell Proliferation Assay (MTS) and LIVE/DEAD cell assay were used to determine the effect of each of the constituents on cell viability.

[2] = system: cells
Method: Effect of Hydrogel Precursor Solution Components on Cell Viability. Cells (10^5 cells/mL) were plated on 48-well plates and were allowed to adhere to the plates overnight. […] The pH of one solution was adjusted to 5 (using […]) and that of the other solution was adjusted to 8 (using 1 M NaOH). […] The treatment groups were compared to untreated controls where cells were incubated with media. […] To this, 30 μL of MTS test reagent was added. Cells were then incubated with MTS test reagent for 3 hours and absorbance recorded at 490 nm on a UV plate reader.
as §1, §2, §3, §4

[3] = system: gingival fibroblasts; settings: cited from earlier work
[4] = system: cells; assay: Effect of physical foaming (nitrogen gas/compressed air) on cell viability; type: cell-based
Method: Effect of Physical Foaming on Cell Viability. Cells (10^5 cells/mL) were suspended in media and treated with the precursor solution used in fabrication of superporous hydrogels. […] The precursor solution was then exposed to UV for 3.5 minutes. In one treatment group nitrogen gas/compressed air was applied to the top of the cells at 200 psi for 2 minutes at a flow rate of 4000 mL/minute. In a second treatment group, nitrogen gas/compressed air was applied from below the cells suspended in the Buchner funnel at 200 psi for 2 minutes at a flow rate of 4000 mL/minute. Thereafter, each of the groups was exposed to UV at 5 mW/cm^2 for 3 minutes, washed twice with DPBS containing Ca and Mg, resuspended in fresh media and transferred to a 48-well plate. Cells were incubated for 24, 48 and 72 hours and cell viability was determined via the MTS test and LIVE/DEAD cell assay.

[5] = system: cells; settings: cells in media at pH 5, 10 minutes, MTS and LIVE/DEAD
Method: A third group was the untreated controls. At the end of 10 minutes, the cells were washed, resuspended in fresh media, and analyzed with the MTS test reagent and LIVE/DEAD cell assay.

For `N.N.O=S(=O)(O)OOS(=O)(=O)O` [APS, Ammonium persulphate], the live/dead cells ([1]; 0.05% APS) was “the cells were dead”, the live/dead cells ([1]; APS, end of each incubation period) was “dead cells at the end of each of the incubation periods” and the cell viability ([2]; 0.05% APS, MTS) was 60%. The viable cells ([2]; 0.70% APS, 10 minutes, pH 5, MTS) was 21.25±9.6%, the viable cells ([2]; 0.70% APS, 24 hours, pH 8, MTS) was 16.83±4.8% and the viable cells ([2]; 0.70% APS, 48 hours, pH 8, MTS) was 14.8±6.8%. The viable cells ([2]; 0.70% APS, 72 hours, pH 8, MTS) was 11.63±0.3% and the toxicity ([2]; APS 0.05% to 1.5%, 10 minutes, 24, 48 and 72 hours) was “toxic to cells at all concentrations tested”.
With `CN(C)CCN(C)C` [TEMED, N,N,N′,N′-tetramethylethylenediamine] the live/dead cells ([1]; TEMED all concentrations, 10 minutes) was “cells were alive”, the live/dead cells ([1]; TEMED, longer time periods) was “they were dead” and the viable cells ([2]; 0.90% TEMED, 10 minutes, pH 5, MTS) was 108.59±1.23%. The viable cells ([2]; 0.90% TEMED, 24 hours, pH 8, MTS) was 30.63±5.51%, the viable cells ([2]; 0.90% TEMED, 48 hours, pH 8, MTS) was 20.41±6.92% and the viable cells ([2]; 0.90% TEMED, 72 hours, pH 8, MTS) was 18.53±12.82%. For the same compound, the toxicity ([2]; TEMED 0.05% to 0.90%, 10 minutes) was “no significant toxicity” and the toxicity ([2]; TEMED all concentrations, 24, 48 and 72 hours) was “toxicity observed at all concentrations”.
In the case of `O=C(O)CC(O)(CC(=O)O)C(=O)O` [citric acid], the cell death ([3]; 47.6 mM (pH 2.3) in water, within three minutes) is given as “complete cell death”, the “inhibition of attachment and spreading of fibroblasts on Type I collagen” value ([3]; medium containing 11.9 mM) is given as 22% and the “inhibition of attachment and spreading of fibroblasts on culture plates” value ([3]; medium containing 11.9 mM) is given as 58%. The “inhibition of protein synthesis” value ([3]; within three hours of incubation) was 0.28%, the viable cells ([2]; 10 min, 2.4 % (w/v), pH 5) was “about 99.7±11.6%” and the viable cells ([2]; 24 h, 2.4 % (w/v), pH 8) was 28.95±5.70%. The viable cells ([2]; 48 h, 2.4 % (w/v), pH 8) was 15.81±1.80% and the viable cells ([2]; 72 h, 2.4 % (w/v), pH 8) was 16.20±6.81%.
For `N#N` [nitrogen gas under pressure], the “cell death over 72 hours” value ([4]; cells washed and plated for 24, 48 and 72 hours after foaming) was “cell death observed over 72 hours” and the “cell death compared to untreated controls” value ([4]; determined immediately after treating cells) was “approximately 20%”.
With `[Na+].[OH-]` [sodium hydroxide] the “cell death on sudden pH change from acidic to alkaline” value [5] was “a significant amount of cell death”.
